The target in assay [1] is T1, human recombinant HDAC6 (Homo sapiens, UniProt Q9UBN7).
T1 construct: purchased Calbiochem Inc. 382180
T1 sequence (Q9UBN7 1-1215): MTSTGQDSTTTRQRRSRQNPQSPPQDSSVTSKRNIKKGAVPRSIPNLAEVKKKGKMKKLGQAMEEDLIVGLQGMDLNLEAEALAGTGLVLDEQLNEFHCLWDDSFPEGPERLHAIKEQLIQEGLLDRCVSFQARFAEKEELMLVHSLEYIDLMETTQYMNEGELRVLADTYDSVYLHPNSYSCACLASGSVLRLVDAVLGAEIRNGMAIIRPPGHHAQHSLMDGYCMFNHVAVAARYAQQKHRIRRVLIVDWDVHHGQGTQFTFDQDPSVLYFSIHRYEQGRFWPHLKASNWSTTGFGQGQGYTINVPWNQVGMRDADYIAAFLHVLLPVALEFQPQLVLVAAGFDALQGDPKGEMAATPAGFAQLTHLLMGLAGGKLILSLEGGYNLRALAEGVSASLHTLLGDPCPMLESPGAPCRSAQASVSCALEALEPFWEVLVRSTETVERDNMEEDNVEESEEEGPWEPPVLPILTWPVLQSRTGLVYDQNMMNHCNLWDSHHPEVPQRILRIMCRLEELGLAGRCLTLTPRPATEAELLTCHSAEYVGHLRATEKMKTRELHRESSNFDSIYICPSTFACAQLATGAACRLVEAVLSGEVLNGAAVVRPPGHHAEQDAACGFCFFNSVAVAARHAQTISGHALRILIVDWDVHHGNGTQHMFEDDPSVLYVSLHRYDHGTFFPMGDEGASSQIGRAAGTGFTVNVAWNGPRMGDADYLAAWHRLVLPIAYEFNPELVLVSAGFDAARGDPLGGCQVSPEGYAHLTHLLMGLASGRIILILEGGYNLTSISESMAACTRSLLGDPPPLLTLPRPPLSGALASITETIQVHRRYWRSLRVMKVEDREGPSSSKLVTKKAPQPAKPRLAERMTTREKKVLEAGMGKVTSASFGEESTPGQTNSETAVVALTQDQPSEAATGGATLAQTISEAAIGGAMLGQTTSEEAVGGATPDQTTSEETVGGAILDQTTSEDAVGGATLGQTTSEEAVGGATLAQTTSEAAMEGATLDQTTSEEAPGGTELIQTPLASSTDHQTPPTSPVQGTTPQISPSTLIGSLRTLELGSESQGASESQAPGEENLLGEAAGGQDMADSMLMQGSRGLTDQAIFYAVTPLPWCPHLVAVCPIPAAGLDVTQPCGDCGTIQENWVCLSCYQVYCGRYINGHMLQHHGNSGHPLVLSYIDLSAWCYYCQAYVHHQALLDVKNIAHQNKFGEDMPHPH
The experiment in a line: HDAC6 enzyme activity inhibition (HDAC Fluorimetric Drug Discovery Kit). The class given is biochemical. In outline:
(§1)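 Compounds in 5-fold dilution series were incubated with […] enzyme and 10 μM substrate at 30° C for 60 minutes. Fluor de Lys Developer II was then added for 30 minutes to stop the reaction and develop the fluorescent signal.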

The target of assay [2] is T2, human recombinant HDAC1 (Homo sapiens, UniProt Q13547).
T2 construct: purchased Enzo Life Science, Inc. BML-SE456
Put plainly: HDAC1 enzyme activity inhibition (HDAC Fluorimetric Drug Discovery Kit). The class given is biochemical. The note with it: read-out: HDAC1. In outline:
as §1

[3] abbreviates: human recombinant HDAC6, same protocol as HDAC1.
[4] abbreviates: human recombinant HDAC1, Fluor de Lys substrate, 30° C. 60 minutes.
The mark [5] stands for this setting: human recombinant HDAC6, IC50 calculated with GraphPad Prism.
[6] abbreviates: human recombinant HDAC1, IC50 calculated with GraphPad Prism.

This is an account of results in patent publication US20230257372A1 (CHONG KUN DANG PHARMACEUTICAL CORP., priority 2020, published 2023).

Each structure is given as a SMILES string. Where two headings read alike, the source gives them in different places. A value given as a limit tells only on which side of the number the result lay.

T2 sequence (Q13547 whole entry): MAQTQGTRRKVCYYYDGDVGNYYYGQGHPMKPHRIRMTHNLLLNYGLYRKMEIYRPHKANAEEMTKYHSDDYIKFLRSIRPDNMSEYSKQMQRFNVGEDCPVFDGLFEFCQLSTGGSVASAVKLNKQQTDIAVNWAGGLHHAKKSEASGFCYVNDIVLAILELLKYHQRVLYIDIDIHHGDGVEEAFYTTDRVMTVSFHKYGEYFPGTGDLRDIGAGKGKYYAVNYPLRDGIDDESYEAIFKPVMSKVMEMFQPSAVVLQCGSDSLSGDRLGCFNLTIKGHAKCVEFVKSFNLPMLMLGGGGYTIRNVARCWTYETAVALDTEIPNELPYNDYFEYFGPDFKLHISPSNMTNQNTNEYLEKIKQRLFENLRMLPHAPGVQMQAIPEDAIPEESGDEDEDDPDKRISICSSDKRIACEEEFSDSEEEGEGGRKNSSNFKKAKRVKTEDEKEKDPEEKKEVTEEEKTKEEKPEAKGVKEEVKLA

Consider `Fc1cc(-c2nnc(C(F)F)o2)ccc1Cn1cc(-c2nccs2)nn1` [Compound 17848, 2-(difluoromethyl)-5-(3-fluoro-4-((4-(thiazol-2-yl)-1H-1,2,3-triazol-1-yl)methyl)phenyl)-1,3,4-oxadiazole], for which the “HDAC6 selectivity (fold)” value in assay [1] (HDAC6 over HDAC1) worked out at 646 fold. Further, the results for the IC50 in assay [1] (setting [3]) and in assay [2] (setting [4]) were 0.0773 µM and more than 50 µM, respectively.
Turning to `CN1CCN(c2cc(-c3cn(Cc4ccc(-c5nnc(C(F)F)o5)cc4F)nn3)ccc2F)CC1` [Compound 4424, 2-(difluoromethyl)-5-(3-fluoro-4-((4-(4-fluoro-3-(4-methylpiperazin-1-yl)phenyl)-1H-1,2,3-triazol-1-yl)methyl)phenyl)-1,3,4-oxadiazol], the “HDAC6 selectivity (fold)” value in assay [1] (HDAC1 IC50 / HDAC6 IC50) worked out at 559 fold. For the same compound, the IC50 was 0.0894 µM in assay [1] (setting [5]) and more than 50 µM in assay [2] (setting [6]).
Consider `FC(F)c1nnc(-c2ccc(Cn3cc(-c4ccc(CN5CCCC5)cc4)nn3)nc2)o1` [Compound 4560, 2-(difluoromethyl)-5-(6-((4-(4-(pyrrolidin-1-ylmethyl)phenyl)-1H-1,2,3-triazol-1-yl)methyl)pyridin-3-yl)-1,3,4-oxadiazole], for which the “HDAC6 selectivity (fold)” value in assay [1] (HDAC6 over HDAC1) is listed as 4672 fold. Also, the IC50 in assay [1] (setting [3]) was 0.0107 µM; in assay [2] (setting [4]), more than 50 µM.
For the compound `Fc1cc(-c2nnc(C(F)F)o2)ccc1Cn1cc(-c2cccc(N3CCOCC3)c2)nn1` [Compound 4339, 4-(3-(1-(4-(5-(difluoromethyl)-1,3,4-oxadiazol-2-yl)-2-fluorobenzyl)-1H-1,2,3-triazol-4-yl)phenyl)morpholine], the “HDAC6 selectivity (fold)” value in assay [1] (HDAC1 IC50 / HDAC6 IC50) worked out at 1623 fold. Moreover, the IC50 in assay [1] (setting [5]) is 0.0308 µM; in assay [2] (setting [6]), more than 50 µM.
Regarding `Fc1cc(-c2nnc(C(F)F)o2)ccc1Cn1cc(-c2ccccc2CN2CCCC2)nn1` [Compound 4585, 2-(difluoromethyl)-5-(3-fluoro-4-((4-(2-(pyrrolidin-1-ylmethyl)phenyl)-1H-1,2,3-triazol-1-yl)methyl)phenyl)-1,3,4-oxadiazole], in assay [1] (HDAC6 over HDAC1), the “HDAC6 selectivity (fold)” value worked out at 237 fold. The IC50 in assay [1] (setting [3]) was 0.21 µM; in assay [2] (setting [4]), more than 50 µM.
Regarding `CN(C)CC(=O)Nc1cccc(-c2cn(Cc3ccc(-c4nnc(C(F)F)o4)cc3)nn2)c1` [Compound 4329, N-(3-(1-(4-(5-(difluoromethyl)-1,3,4-oxadiazol-2-yl)benzyl)-1H-1,2,3-triazol-4-yl)phenyl)-2-(dimethylamino)acetamide], in assay [1] (HDAC1 IC50 / HDAC6 IC50), the “HDAC6 selectivity (fold)” value is 815 fold. Also, the IC50 in assay [1] (setting [5]) was 0.0613 µM; in assay [2] (setting [6]), more than 50 µM.
The corresponding values for `CN(C)Cc1c(-c2ccccc2)nnn1Cc1ccc(-c2nnc(C(F)F)o2)cn1` [Compound 4490, 1-(1-((5-(5-(difluoromethyl)-1,3,4-oxadiazol-2-yl)pyridin-2-yl)methyl)-4-phenyl-1H-1,2,3-triazol-5-yl)-N,N-dimethylmethanamine] are 571 fold, 0.0875 µM and more than 50 µM.
The corresponding values for `FC(F)c1nnc(-c2ccc(Cn3cc(-c4cccc(CN5CCCC5)c4)nn3)nc2)o1` [Compound 3966, 2-(difluoromethyl)-5-(6-((4-(3-(pyrrolidin-1-ylmethyl)phenyl)-1H-1,2,3-triazol-1-yl)methyl)pyridin-3-yl)-1,3,4-oxadiazole] are 1694 fold, 0.0295 µM and more than 50 µM.
Consider `CN1CC(N2CCC(c3cccc(-c4cn(Cc5ccc(-c6nnc(C(F)F)o6)cc5F)nn4)c3)CC2)C1` [Compound 4294, 2-(difluoromethyl)-5-(3-fluoro-4-((4-(3-(1-(1-methylazetidin-3-yl)piperidin-4-yl)phenyl)-1H-1,2,3-triazol-1-yl)methyl)phenyl)-1,3,4-oxadiazole], for which the “HDAC6 selectivity (fold)” value in assay [1] (HDAC1 IC50 / HDAC6 IC50) is reported as 791 fold. Besides, the values for the IC50 in assay [1] (setting [5]) and in assay [2] (setting [6]) were 0.0632 µM and more than 50 µM, respectively.
As to `C[C@@H]1CN(c2cccc(-c3cn(Cc4ncc(-c5nnc(C(F)F)o5)cc4F)nn3)c2)C[C@H](C)N1C` [Compound 18961, 2-(difluoromethyl)-5-(5-fluoro-6-((4-(3-((3R,5S)-3,4,5-trimethylpiperazin-1-yl)phenyl)-1H-1,2,3-triazol-1-yl)methyl)pyridin-3-yl)-1,3,4-oxadiazole], in assay [1] (HDAC6 over HDAC1), the “HDAC6 selectivity (fold)” value is reported as 782 fold. The figures for the IC50 in assay [1] (setting [3]) and in assay [2] (setting [4]) were 0.0639 µM and more than 50 µM, respectively.
On to `CCC(F)(CC)CN1CCC(c2cccc(-c3cn(Cc4ccc(-c5nnc(C(F)F)o5)cc4F)nn3)c2)CC1` [Compound 4350, 2-(difluoromethyl)-5-(4-((4-(3-(1-(2-ethyl-2-fluorobutyl)piperidin-4-yl)phenyl)-1H-1,2,3-triazol-1-yl)methyl)-3-fluorophenyl)-1,3,4-oxadiazole], for which the “HDAC6 selectivity (fold)” value in assay [1] (HDAC1 IC50 / HDAC6 IC50) is on record as 82 fold. In addition, the IC50 is 0.605 µM in assay [1] (setting [5]) and more than 50 µM in assay [2] (setting [6]).
Consider `CC(C)N1CCN(C(=O)c2cccc(-c3cn(Cc4ccc(-c5nnc(C(F)F)o5)cn4)nn3)c2)CC1` [Compound 4448, (3-(1-((5-(5-(difluoromethyl)-1,3,4-oxadiazol-2-yl)pyridin-2-yl)methyl)-1H-1,2,3-triazol-4-yl)phenyl)(4-isopropylpiperazin-1-yl)methanone], for which the “HDAC6 selectivity (fold)” value in assay [1] (HDAC1 IC50 / HDAC6 IC50) was 2873 fold. Further, the figures for the IC50 in assay [1] (setting [5]) and in assay [2] (setting [6]) were 0.0174 µM and more than 50 µM, respectively.
The corresponding values for `CCN1CCN(c2cccc(-c3cn(Cc4ccc(-c5nnc(C(F)F)o5)cc4)nn3)c2)CC1` [Compound 4368, 2-(difluoromethyl)-5-(4-((4-(3-(4-ethylpiperazin-1-yl)phenyl)-1H-1,2,3-triazol-1-yl)methyl)phenyl)-1,3,4-oxadiazole] are 1533 fold, 0.0326 µM and more than 50 µM.
For the compound `Fc1cc(-c2nnc(C(F)F)o2)ccc1Cn1cc(-c2csc(CN3CCCC3)c2)nn1` [Compound 18187, 2-(difluoromethyl)-5-(3-fluoro-4-((4-(5-(pyrrolidin-1-ylmethyl)thiophen-3-yl)-1H-1,2,3-triazol-1-yl)methyl)phenyl)-1,3,4-oxadiazole], the “HDAC6 selectivity (fold)” value in assay [1] (HDAC6 over HDAC1) was found to be 605 fold. In addition, the IC50 in assay [1] (setting [3]) is 0.0826 µM; in assay [2] (setting [4]), more than 50 µM.
With `FC(F)c1nnc(-c2ccc(Cc3nnc(-c4ccccc4)o3)cc2)o1` [Compound 3980, 2-(difluoromethyl)-5-(4-((5-phenyl-1,3,4-oxadiazol-2-yl)methyl)phenyl)-1,3,4-oxadiazole], in assay [1] (HDAC1 IC50 / HDAC6 IC50), the “HDAC6 selectivity (fold)” value is reported as 272 fold. Further, the IC50 in assay [1] (setting [5]) was 0.184 µM; in assay [2] (setting [6]) it was more than 50 µM.
Regarding `FC(F)c1nnc(-c2ccc(Cn3cc(-c4cccc(C5CN(C6COC6)C5)c4)nn3)nc2)o1` [Compound 4505, 2-(difluoromethyl)-5-(6-((4-(3-(1-(oxetan-3-yl)azetidin-3-yl)phenyl)-1H-1,2,3-triazol-1-yl)methyl)pyridin-3-yl)-1,3,4-oxadiazole], the “HDAC6 selectivity (fold)” value in assay [1] (HDAC6 over HDAC1) amounted to 2032 fold. In addition, the figures for the IC50 in assay [1] (setting [3]) and in assay [2] (setting [4]) were 0.0246 µM and more than 50 µM, respectively.
With `CCN1CCN(Cc2ccc(-c3cn(Cc4ccc(-c5nnc(C(F)F)o5)cc4)nn3)cc2)CC1` [Compound 4553, 2-(difluoromethyl)-5-(4-((4-(4-((4-ethylpiperazin-1-yl)methyl)phenyl)-1H-1,2,3-triazol-1-yl)methyl)phenyl)-1,3,4-oxadiazole], in assay [1] (HDAC6 over HDAC1), the “HDAC6 selectivity (fold)” value was 986 fold. For the same compound, the values for the IC50 in assay [1] (setting [3]) and in assay [2] (setting [4]) were 0.0507 µM and more than 50 µM, respectively.
In the case of `Fc1cc(-c2nnc(C(F)F)o2)ccc1Cn1cc(-c2ccnc3[nH]ccc23)nn1` [Compound 4526, 2-(4-((4-(1H-pyrrolo[2,3-b]pyridin-4-yl)-1H-1,2,3-triazol-1-yl)methyl)-3-fluorophenyl)-5-(difluoromethyl)-1,3,4-oxadiazole], in assay [1] (HDAC6 over HDAC1), the “HDAC6 selectivity (fold)” value was found to be 3846 fold. Also, the results for the IC50 in assay [1] (setting [3]) and in assay [2] (setting [4]) were 0.013 µM and more than 50 µM, respectively.
